# Results from paper PMC12028158, “Synthesis and In Vitro Evaluation of the Anticancer Effect of Novel Phosphonium Vindoline Derivatives” (International Journal of Molecular Sciences, 2025).
# Where two headings read alike, the source gives them in different places.
# Experiments:
# Assay type in all cases: cell-based
# MDA-MB-468 = experiment: NCI60 one-dose screen; conditions: Homo sapiens, MDA-MB-468, read-out: Growth percent
# A549/ATCC = experiment: NCI60 one-dose screen; conditions: Homo sapiens, A549, read-out: Growth percent
# MCF7 = experiment: NCI60 five-dose screen; conditions: Homo sapiens, MCF7
# HCT-15 = experiment: NCI60 five-dose screen; conditions: Homo sapiens, HCT-15
# NCI-H460 = experiment: NCI60 one-dose screen; conditions: Homo sapiens, NCI-H460, read-out: Growth percent
# OVCAR-3 = experiment: NCI60 one-dose screen; conditions: Homo sapiens, OVCAR-3, read-out: Growth percent
# RXF 393 [1] = experiment: NCI60 one-dose screen; conditions: Homo sapiens, RXF 393, read-out: Growth percent
# CCRF-CEM = experiment: NCI60 five-dose screen; conditions: Homo sapiens
# OVCAR-8 = experiment: NCI60 five-dose screen; conditions: Homo sapiens, OVCAR-8
# K-562 = experiment: NCI60 one-dose screen; conditions: Homo sapiens, K562, read-out: Growth percent
# SN12C = experiment: NCI60 one-dose screen; conditions: Homo sapiens, read-out: Growth percent
# LOX IMVI = experiment: NCI60 one-dose screen; conditions: Homo sapiens, read-out: Growth percent
# SF-539 = experiment: NCI60 five-dose screen; conditions: Homo sapiens, SF-539
# 786-0 [2] = experiment: NCI60 five-dose screen; conditions: Homo sapiens, 786-0
# MALME-3M = experiment: NCI60 five-dose screen; conditions: Homo sapiens, Malme-3M
# TK-10 [3] = experiment: NCI60 five-dose screen; conditions: Homo sapiens, TK-10
# SK-OV-3 = experiment: NCI60 one-dose screen; conditions: Homo sapiens, SK-OV-3, read-out: Growth percent
# EKVX [4] = experiment: NCI60 five-dose screen; conditions: Homo sapiens
# RXF 393 [5] = experiment: NCI60 five-dose screen; conditions: Homo sapiens, RXF 393
# MOLT-4 = experiment: NCI60 five-dose screen; conditions: Homo sapiens, MOLT-4
# SNB-19 = experiment: NCI60 one-dose screen; conditions: Homo sapiens, SNB-19, read-out: Growth percent
# PC-3 [6] = experiment: NCI60 one-dose screen; conditions: Homo sapiens, PC-3, read-out: Growth percent
# OVCAR-4 = experiment: NCI60 five-dose screen; conditions: Homo sapiens, OVCAR-4
# M14 = experiment: NCI60 five-dose screen; conditions: Homo sapiens, M14
# Renal Cancer panel = experiment: NCI60 five-dose screen, panel mean; conditions: Homo sapiens
# NCI-H322M = experiment: NCI60 one-dose screen; conditions: Homo sapiens, read-out: Growth percent
# NCI-H522 = experiment: NCI60 one-dose screen; conditions: Homo sapiens, NCI-H522, read-out: Growth percent
# [7] = system: Non-small Cell Lung Cancer panel; experiment: NCI60 five-dose screen, panel mean; conditions: Homo sapiens
# Melanoma panel = experiment: NCI60 five-dose screen, panel mean; conditions: Homo sapiens
# U251 = experiment: NCI60 five-dose screen; conditions: Homo sapiens, U-251
# ACHN = experiment: NCI60 five-dose screen; conditions: Homo sapiens
# COLO 205 = experiment: NCI60 one-dose screen; conditions: Homo sapiens, COLO 205, read-out: Growth percent
# EKVX [8] = experiment: NCI60 one-dose screen; conditions: Homo sapiens, read-out: Growth percent
# NCI-H23 = experiment: NCI60 one-dose screen; conditions: Homo sapiens, NCI-H23, read-out: Growth percent
# 786-0 [9] = experiment: NCI60 one-dose screen; conditions: Homo sapiens, 786-0, read-out: Growth percent
# DU-145 = experiment: NCI60 one-dose screen; conditions: Homo sapiens, DU-145, read-out: Growth percent
# BT-549 = experiment: NCI60 five-dose screen; conditions: Homo sapiens, BT-549
# NCI/ADR-RES = experiment: NCI60 five-dose screen; conditions: Homo sapiens
# HL-60(TB) = experiment: NCI60 five-dose screen; conditions: Homo sapiens, HL-60
# RPMI-8226 = experiment: NCI60 five-dose screen; conditions: Homo sapiens, RPMI-8226
# Ovarian Cancer panel = experiment: NCI60 five-dose screen, panel mean; conditions: Homo sapiens
# PC-3 [10] = experiment: NCI60 five-dose screen; conditions: Homo sapiens, PC-3
# UACC-62 = experiment: NCI60 one-dose screen; conditions: Homo sapiens, UACC-62, read-out: Growth percent
# SK-MEL-28 = experiment: NCI60 five-dose screen; conditions: Homo sapiens, SK-MEL-28
# TK-10 [11] = experiment: NCI60 one-dose screen; conditions: Homo sapiens, TK-10, read-out: Growth percent
# KM12 = experiment: NCI60 one-dose screen; conditions: Homo sapiens, KM12, read-out: Growth percent
# MDA-MB-435 = experiment: NCI60 one-dose screen; conditions: Homo sapiens, MDA-MB-435, read-out: Growth percent
# OVCAR-5 = experiment: NCI60 five-dose screen; conditions: Homo sapiens, OVCAR-5
smiles,measurement,setting,value
CCC12C=CCN3CCC4(c5ccc(OC)cc5N(C)C4C(O)(C(=O)OC)C1OC(=O)CCC[P+](c1ccc(C)cc1)(c1ccc(C)cc1)c1ccc(C)cc1)C32 (stereo not drawn) [9a],activity at 10 µM,MDA-MB-468,-92.1%
same,activity at 10 µM,A549/ATCC,-90.3%
same,GI50,MCF7,281 nM
same,GI50,HCT-15,1620 nM
same,activity at 10 µM,NCI-H460,-85.2%
same,activity at 10 µM,OVCAR-3,-61.9%
same,activity at 10 µM,RXF 393 [1],-82.8%
same,GI50,CCRF-CEM,359 nM
same,GI50,OVCAR-8,372 nM
same,activity at 10 µM,K-562,-13.1%
same,activity at 10 µM,SN12C,-88.1%
same,activity at 10 µM,LOX IMVI,-89.3%
same,GI50,SF-539,338 nM
same,GI50,786-0 [2],1060 nM
same,GI50,MALME-3M,220 nM
same,GI50,TK-10 [3],600 nM
same,activity at 10 µM,SK-OV-3,-81%
same,GI50,EKVX [4],534 nM
same,GI50,RXF 393 [5],279 nM
same,GI50,MOLT-4,294 nM
same,activity at 10 µM,SNB-19,-97.3%
same,activity at 10 µM,PC-3 [6],-83.3%
same,GI50,OVCAR-4,370 nM
same,GI50,M14,456 nM
same,GI50,Renal Cancer panel; read-out: Mean GI50,1050 nM
same,activity at 10 µM,NCI-H322M,-98.4%
same,activity at 10 µM,NCI-H522,-86.3%
same,GI50,[7]; read-out: Mean GI50,410 nM
same,GI50,Melanoma panel; read-out: Mean GI50,350 nM
same,GI50,U251,291 nM
same,GI50,ACHN,1610 nM
same,activity at 10 µM,COLO 205,-50.2%
same,activity at 10 µM,EKVX [8],-94.7%
same,activity at 10 µM,NCI-H23,-90.7%
same,activity at 10 µM,786-0 [9],-88%
same,activity at 10 µM,DU-145,-78.5%
same,GI50,BT-549,247 nM
same,GI50,NCI/ADR-RES,8870 nM
same,GI50,HL-60(TB),162 nM
same,GI50,RPMI-8226,186 nM
same,GI50,Ovarian Cancer panel; read-out: Mean GI50,1570 nM
same,GI50,PC-3 [10],310 nM
same,activity at 10 µM,UACC-62,-96.8%
same,GI50,SK-MEL-28,361 nM
same,activity at 10 µM,TK-10 [11],-88.5%
same,activity at 10 µM,KM12,-76.1%
same,activity at 10 µM,MDA-MB-435,-57.5%
same,GI50,OVCAR-5,331 nM
CC[C@]12C=CCN3CC[C@@]4(c5ccc(OC)cc5N(C)[C@H]4[C@@](O)(C(=O)OC)[C@@H]1OC(=O)CCCC[P+](C1CCCCC1)(C1CCCCC1)C1CCCCC1)[C@@H]32 [10d],activity at 10 µM,MDA-MB-468,-79%
same,activity at 10 µM,A549/ATCC,11.7%
same,GI50,MCF7,1050 nM
same,GI50,HCT-15,16100 nM
same,activity at 10 µM,NCI-H460,5.27%
same,activity at 10 µM,OVCAR-3,-60.3%
same,activity at 10 µM,RXF 393 [1],-73.8%
same,GI50,CCRF-CEM,2550 nM
same,GI50,OVCAR-8,2930 nM
same,activity at 10 µM,K-562,7.48%
same,activity at 10 µM,SN12C,-57.9%
same,activity at 10 µM,LOX IMVI,-96.1%
same,GI50,SF-539,2850 nM
same,GI50,786-0 [2],5430 nM
same,GI50,MALME-3M,1630 nM
same,GI50,TK-10 [3],3080 nM
same,activity at 10 µM,SK-OV-3,-22.2%
same,GI50,EKVX [4],3130 nM
same,GI50,RXF 393 [5],1240 nM
same,GI50,MOLT-4,1720 nM
same,activity at 10 µM,SNB-19,-71.1%
same,activity at 10 µM,PC-3 [6],3.69%
same,GI50,OVCAR-4,2720 nM
same,GI50,M14,2200 nM
same,GI50,Renal Cancer panel; read-out: GI50 Mean,8360 nM
same,activity at 10 µM,NCI-H322M,16.1%
same,activity at 10 µM,NCI-H522,-71.8%
same,GI50,[7]; read-out: GI50 Mean,2950 nM
same,GI50,Melanoma panel; read-out: GI50 Mean,1960 nM
same,GI50,U251,640 nM
same,GI50,ACHN,16000 nM
same,activity at 10 µM,COLO 205,-76.6%
same,activity at 10 µM,EKVX [8],13.2%
same,activity at 10 µM,NCI-H23,-9.66%
same,activity at 10 µM,786-0 [9],-36%
same,activity at 10 µM,DU-145,9.57%
same,GI50,BT-549,2450 nM
same,GI50,NCI/ADR-RES,65500 nM
same,GI50,HL-60(TB),293 nM
same,GI50,RPMI-8226,412 nM
same,GI50,Ovarian Cancer panel; read-out: GI50 Mean,11400 nM
same,GI50,PC-3 [10],1460 nM
same,activity at 10 µM,UACC-62,-96.9%
same,GI50,SK-MEL-28,1380 nM
same,activity at 10 µM,TK-10 [11],-64.1%
same,activity at 10 µM,KM12,-71.1%
same,activity at 10 µM,MDA-MB-435,-90.5%
same,GI50,OVCAR-5,3190 nM
CC[C@]12C=CCN3CC[C@@]4(c5ccc(OC)cc5N(C)[C@H]4[C@@](O)(C(=O)OC)[C@@H]1OC(=O)CCC[P+](C1CCCCC1)(C1CCCCC1)C1CCCCC1)[C@@H]32 [9d],activity at 10 µM,MDA-MB-468,-79.6%
same,activity at 10 µM,A549/ATCC,14.1%
same,GI50,MCF7,1190 nM
same,GI50,HCT-15,15300 nM
same,activity at 10 µM,NCI-H460,4.64%
same,activity at 10 µM,OVCAR-3,-48.6%
same,activity at 10 µM,RXF 393 [1],-70.3%
same,GI50,CCRF-CEM,1690 nM
same,GI50,OVCAR-8,2970 nM
same,activity at 10 µM,K-562,3.31%
same,activity at 10 µM,SN12C,-40.5%
same,activity at 10 µM,LOX IMVI,-96%
same,GI50,SF-539,2940 nM
same,GI50,786-0 [2],4450 nM
same,GI50,MALME-3M,1460 nM
same,GI50,TK-10 [3],2730 nM
same,activity at 10 µM,SK-OV-3,-7.72%
same,GI50,EKVX [4],3090 nM
same,GI50,RXF 393 [5],1470 nM
same,GI50,MOLT-4,2160 nM
same,activity at 10 µM,SNB-19,-60%
same,activity at 10 µM,PC-3 [6],-12%
same,GI50,OVCAR-4,2390 nM
same,GI50,M14,1920 nM
same,GI50,Renal Cancer panel; read-out: Mean GI50,7930 nM
same,activity at 10 µM,NCI-H322M,24.5%
same,activity at 10 µM,NCI-H522,-82.2%
same,GI50,[7]; read-out: Mean GI50,3670 nM
same,GI50,Melanoma panel; read-out: Mean GI50,1700 nM
same,GI50,U251,746 nM
same,GI50,ACHN,15200 nM
same,activity at 10 µM,COLO 205,-63.6%
same,activity at 10 µM,EKVX [8],15.4%
same,activity at 10 µM,NCI-H23,-4.73%
same,activity at 10 µM,786-0 [9],-16.2%
same,activity at 10 µM,DU-145,15.7%
same,GI50,BT-549,2440 nM
same,GI50,NCI/ADR-RES,35600 nM
same,GI50,HL-60(TB),322 nM
same,GI50,RPMI-8226,383 nM
same,GI50,Ovarian Cancer panel; read-out: Mean GI50,7120 nM
same,GI50,PC-3 [10],1710 nM
same,activity at 10 µM,UACC-62,-97.3%
same,GI50,SK-MEL-28,1080 nM
same,activity at 10 µM,TK-10 [11],-48.6%
same,activity at 10 µM,KM12,-63.4%
same,activity at 10 µM,MDA-MB-435,-80.1%
same,GI50,OVCAR-5,3190 nM
